# In article PMC6379965, “Expression and activity of the calcitonin receptor family in a sample of primary human high-grade gliomas” (BMC Cancer, 2019):
# Ends that are not written are not given here.
# What was measured:
# CGRP (CLR + RAMP1) = conditions: receptor CGRP, ref [10], [11], [38]; cited from earlier work
# AM1 (CLR + RAMP2) = conditions: receptor AM1, CLR + RAMP2; ref [10], [11], [38]; cited from earlier work
# AM2 (CLR + RAMP3) = conditions: receptor AM2, CLR + RAMP3; ref [10], [11], [38]; cited from earlier work
# AMY3 (CTR + RAMP3) = conditions: receptor AMY3, CTR + RAMP3; ref [10], [11], [38]; cited from earlier work
# CTR = conditions: receptor CTR; ref [10], [11], [38]; cited from earlier work
# AMY1 (CTR + RAMP1) = conditions: receptor AMY1, CTR + RAMP1; ref [10], [11], [38]; cited from earlier work
# SB2b cell line [1] = assay: cAMP accumulation, αCGRP and AM, SB2b; type: cell-based, human; conditions: 30 min, 3 to 4 independent experiments in triplicate
# Experimental: (§1) Primary patient high-grade glioma (HGG) cell lines, in vitro surrogates of glioblastoma, were developed by QIMR-Berghofer Medical Research Institute (Brisbane, Australia) and represent 3 distinct GBM subtypes: SB2b and PB1 (classical), JK2 (proneural) and WK1(mesenchymal), who supplied these directly for this study. GBM cell lines were cultured as adherent monolayers on matrigel (BD Biosciences)-coated flasks using StemPro NSC SFM serum free cell culture medium (Thermo Fisher Scientific) supplemented with 20 ng/ml EGF and 20 ng/ml FGFb, 1% D-glutamine and 1% of penicillin/ streptomycin (further referred as StemPro complete medium).
# GBM cell lines were seeded at 38000 cells/well (SB2b) or 35,000 cells/well (PB1, JK2 and WK1) in 96-well matrigel-coated plates and incubated for 24 h at 37°C, 5% CO2 in humidified incubator in StemPro complete medium. Media was replaced with stimulation buffer (phenol red free F12 media, 0.1% BSA, 0.5 mM IBMX, pH 7.4). […] Cells were lysed (0.3% Tween 20, 5 mM Hepes, 0.1% BSA, pH 7.4) and 5 μl of cell lysate from each well was transferred to a corresponding well of 384-well optiplate. […] Data were analysed by three-parameter logistic curve and are presented as percentage of 10^− 5 M forskolin response.
# SB2b cell line [2] = assay: Ca2+ mobilization, SB2b; type: cell-based, human; conditions: Fluo4-AM, FlexStation, 37 °C, pH 7.4, peak RFU, ATP 10 μM, ionomycin 1 μM, representative experiment, 3 replicates
# Experimental: (§4) Primary patient high-grade glioma (HGG) cell lines, in vitro surrogates of glioblastoma, were developed by QIMR-Berghofer Medical Research Institute (Brisbane, Australia) and represent 3 distinct GBM subtypes: SB2b and PB1 (classical), JK2 (proneural) and WK1(mesenchymal) [37], who supplied these directly for this study. GBM cell lines were cultured as adherent monolayers on matrigel (BD Biosciences)-coated flasks using StemPro NSC SFM serum free cell culture medium (Thermo Fisher Scientific) supplemented with 20 ng/ml EGF and 20 ng/ml FGFb, 1% D-glutamine and 1% of penicillin/ streptomycin (further referred as StemPro complete medium).
# (§5) GBM cell lines were seeded at 38000 cells/well (SB2b) or 35,000 cells/well (PB1 and WK1) in 96-well matrigel-coated plates and incubated for 24 h at 37 °C, 5% CO2 in humidified incubator in StemPro complete medium. […] Cells were incubated at 37°C for 60 min before ligand addition and detection of Ca^2+ mobilisation in a FlexStation 3 (Molecular Devices).
# [3] = tested on: mouse thymic lymphoma models; conditions: CTR expressed as an amylin receptor, ref [18], [19]; cited from earlier work
# Text: (§2) Research on the role of CTR expression in cancer has been fragmentary and any role for CTR in cancer pathology seems to be entirely dependent on the cancer type. For instance, in human breast cancer model cell lines with high constitutive ERK (Extracellular Signal Regula ...
# WK1 cell line [4] = assay: Ca2+ mobilization, WK1; type: cell-based, human; conditions: Fluo4-AM, FlexStation, 37 °C, pH 7.4, peak RFU, ATP 10 μM, ionomycin 1 μM, representative experiment, 3 replicates
# Experimental: as §4, §5
# JK2 cell line = assay: cAMP accumulation, CTR agonists, JK2; type: cell-based, human; conditions: 30 min, 3 to 5 independent experiments in triplicate
# Experimental: as §1, with “medium). Cells were cultured in 5% CO2 / 95% humidified air at 37 °C.” for “medium).”
# (§3) GBM cell lines were seeded at 38000 cells/well (SB2b) or 35,000 cells/well (PB1, JK2 and WK1) in 96-well matrigel-coated plates and incubated for 24 h at 37°C, 5% CO2 in humidified incubator in StemPro complete medium. Media was replaced with stimulation buffer (phenol red free F12 media, 0.1% BSA, 0.5 mM IBMX, pH 7.4). […] Cells were lysed (0.3% Tween 20, 5 mM Hepes, 0.1% BSA, pH 7.4) and 5 μl of cell lysate from each well was transferred to a corresponding well of 384-well optiplate. Intracellular cAMP levels in the wells were determined using Lance Ultra cAMP assay kit (Perkin Elmer) according to the manufacturer’s instructions and detected using an Envision multilabel 2103 reader. Raw RFU values were converted using a cAMP standard curve to give absolute cAMP concentrations. Data were analysed by three-parameter logistic curve and are presented as percentage of 10^− 5 M forskolin response.
# PB1 cell line [5] = assay: cAMP accumulation, CTR agonists, PB1; type: cell-based, human; conditions: 30 min, 3 to 5 independent experiments in triplicate
# Experimental: as §1, with “medium). Cells were cultured in 5% CO2 / 95% humidified air at 37 °C.” for “medium).”
# as §3
# WK1 cell line [6] = assay: cAMP accumulation, CTR agonists, WK1; type: cell-based, human; conditions: 30 min, agonist 10^-12-10^-6 M, 3 to 5 independent experiments in triplicate
# Experimental: as §1, with “medium). Cells were cultured in 5% CO2 / 95% humidified air at 37 °C.” for “medium).”
# GBM cell lines were seeded at 38000 cells/well (SB2b) or 35,000 cells/well (PB1, JK2 and WK1) in 96-well matrigel-coated plates and incubated for 24 h at 37°C, 5% CO2 in humidified incubator in StemPro complete medium. Media was replaced with stimulation buffer (phenol red free F12 media, 0.1% BSA, 0.5 mM IBMX, pH 7.4). […] Intracellular cAMP levels in the wells were determined using Lance Ultra cAMP assay kit (Perkin Elmer) according to the manufacturer’s instructions and detected using an Envision multilabel 2103 reader. […] Data were analysed by three-parameter logistic curve and are presented as percentage of 10^− 5 M forskolin response.
# PB1 cell line [7] = assay: Ca2+ mobilization, PB1; type: cell-based, human; conditions: Fluo4-AM, FlexStation, 37 °C, pH 7.4, peak RFU, ATP 10 μM, ionomycin 1 μM, representative experiment, 3 replicates
# Experimental: as §4, §5
# [8] = tested on: human prostate cancer cell line PC3; conditions: ref [14], [15]; cited from earlier work
# Text: as §2
# [9] = tested on: MDA-MB-231 xenograft tumours; conditions: ref [13]; cited from earlier work
# Text: as §2
compound,measurement,setting,value
Amylin,Peptides rank order of potency (human),CGRP (CLR + RAMP1),αCGRP > AM ≥ intermedin > AMY ≥ sCT
same,Peptides rank order of potency (human),AM1 (CLR + RAMP2),"AM > intermedin > α-CGRP, AMY > sCT"
same,Peptides rank order of potency (human),AM2 (CLR + RAMP3),AM ≥ intermedin ≥ α-CGRP > AMY > SCT
same,Peptides rank order of potency (human),AMY3 (CTR + RAMP3),sCT ≥ AMY > αCGRP > intermedin ≥ hCT > AM
same,Peptides rank order of potency (human),CTR,"sCT ≥ hCT > AMY, αCGRP > AM, intermedin"
same,Peptides rank order of potency (human),AMY1 (CTR + RAMP1),sCT ≥ AMY ≥ αCGRP > intermedin ≥ hCT > AM
"CC[C@H](C)[C@H](NC(=O)[C@H](CCC(N)=O)NC(=O)[C@H](Cc1c[nH]cn1)NC(=O)[C@H](C)NC(=O)[C@H](CC(C)C)NC(=O)[C@H](CCCCN)NC(=O)[C@H](CCC(N)=O)NC(=O)[C@@H](NC(=O)[C@@H](NC(=O)[C@@H]1CSSC[C@H](NC(=O)CNC(=O)[C@H](Cc2ccccc2)NC(=O)[C@H](CO)NC(=O)[C@H](CCCNC(=N)N)NC(=O)[C@H](CC(C)C)NC(=O)CNC(=O)[C@H](CCC(N)=O)NC(=O)[C@H](Cc2ccccc2)NC(=O)[C@H](CC(N)=O)NC(=O)[C@H](CC(N)=O)NC(=O)[C@H](CCSC)NC(=O)[C@H](CO)NC(=O)[C@H](CCC(N)=O)NC(=O)[C@H](CCCNC(=N)N)NC(=O)[C@@H](N)Cc2ccc(O)cc2)C(=O)N[C@@H](CCCNC(=N)N)C(=O)N[C@@H](Cc2ccccc2)C(=O)NCC(=O)N[C@@H]([C@@H](C)O)C(=O)N1)[C@@H](C)O)C(C)C)C(=O)N[C@@H](Cc1ccc(O)cc1)C(=O)N[C@@H](CCC(N)=O)C(=O)N[C@@H](Cc1ccccc1)C(=O)N[C@H](C(=O)N[C@@H](CC(=O)O)C(=O)N[C@@H](CCCCN)C(=O)N[C@@H](CC(=O)O)C(=O)N[C@@H](CCCCN)C(=O)N[C@@H](CC(=O)O)C(=O)N[C@@H](CC(N)=O)C(=O)N[C@H](C(=O)N[C@@H](C)C(=O)N1CCC[C@H]1C(=O)N[C@@H](CCCNC(=N)N)C(=O)N[C@@H](CO)C(=O)N[C@@H](CCCCN)C(=O)N[C@H](C(=O)N[C@@H](CO)C(=O)N1CCC[C@H]1C(=O)N[C@@H](CCC(N)=O)C(=O)NCC(=O)N[C@@H](Cc1ccc(O)cc1)C(N)=O)[C@@H](C)CC)C(C)C)[C@@H](C)O [AM, Adrenomedullin]",Peptides rank order of potency (human),CGRP (CLR + RAMP1),αCGRP > AM ≥ intermedin > AMY ≥ sCT
same,Peptides rank order of potency (human),AM1 (CLR + RAMP2),"AM > intermedin > α-CGRP, AMY > sCT"
same,Peptides rank order of potency (human),AM2 (CLR + RAMP3),AM ≥ intermedin ≥ α-CGRP > AMY > SCT
same,Peptides rank order of potency (human),AMY3 (CTR + RAMP3),sCT ≥ AMY > αCGRP > intermedin ≥ hCT > AM
same,Peptides rank order of potency (human),CTR,"sCT ≥ hCT > AMY, αCGRP > AM, intermedin"
same,"cAMP response to αCGRP, adrenomedullin (and weak amylin response)",SB2b cell line [1],Weak responses
same,Peptides rank order of potency (human),AMY1 (CTR + RAMP1),sCT ≥ AMY ≥ αCGRP > intermedin ≥ hCT > AM
"CC(C)C[C@H](NC(=O)[C@H](CC(N)=O)NC(=O)[C@H](CC(N)=O)NC(=O)[C@H](CO)NC(=O)[C@H](CO)NC(=O)[C@H](CCCNC(=N)N)NC(=O)[C@@H](NC(=O)[C@H](CC(C)C)NC(=O)[C@H](Cc1ccccc1)NC(=O)[C@H](CC(N)=O)NC(=O)[C@H](C)NC(=O)[C@H](CC(C)C)NC(=O)[C@H](CCCNC(=N)N)NC(=O)[C@H](CCC(N)=O)NC(=O)[C@@H](NC(=O)[C@H](C)NC(=O)[C@@H]1CSSC[C@H](NC(=O)[C@@H](N)CCCCN)C(=O)N[C@@H](CC(N)=O)C(=O)N[C@@H]([C@@H](C)O)C(=O)N[C@@H](C)C(=O)N[C@@H]([C@@H](C)O)C(=O)N1)[C@@H](C)O)C(C)C)C(=O)NCC(=O)N1CCC[C@H]1C(=O)N[C@H](C(=O)N[C@@H](CC(C)C)C(=O)N1CCC[C@H]1C(=O)N1CCC[C@H]1C(=O)N[C@H](C(=O)N[C@@H](CC(N)=O)C(=O)N[C@H](C(=O)NCC(=O)N[C@@H](CO)C(=O)N[C@@H](CC(N)=O)C(=O)N[C@H](C(=O)N[C@@H](Cc1ccc(O)cc1)C(N)=O)[C@@H](C)O)C(C)C)[C@@H](C)O)C(C)C [amylin, Amylin]",intracellular Ca2+ mobilisation response,SB2b cell line [2],unable to detect functional CTR response
same,intracellular Ca2+ mobilisation response,SB2b cell line [2]; listed as rAMY,Absence of intracellular calcium mobilization response
same,metabolic reprogramming,[3],metabolic reprogramming (switch from glycolysis to oxidative phosphorylation)
same,susceptibility to apoptosis,[3],increased susceptibility to apoptosis
same,intracellular Ca2+ mobilisation response,WK1 cell line [4],unable to detect functional CTR response
same,intracellular Ca2+ mobilisation response,WK1 cell line [4]; listed as rAMY,Absence of intracellular calcium mobilization response
same,cAMP response,JK2 cell line; agonist 10^-12-10^-6 M,very weak response
same,"pEC50, cAMP accumulation","JK2 cell line; CTR agonists, 37 °C, S.E.M.",5.9 ± 0.5
same,cAMP response,PB1 cell line [5]; agonist 10^-12-10^-6 M,very weak response
same,"pEC50, cAMP accumulation","PB1 cell line [5]; CTR agonists, 37 °C, S.E.M.",6.1 ± 0.5
same,cAMP response,WK1 cell line [6],very weak response
same,"cAMP response to αCGRP, adrenomedullin (and weak amylin response)",SB2b cell line [1],Weak responses
same,intracellular Ca2+ mobilisation response,PB1 cell line [7],unable to detect functional CTR response
same,intracellular Ca2+ mobilisation response,PB1 cell line [7]; listed as rAMY,Absence of intracellular calcium mobilization response
"Calcitonin (peptide) (CGNLSTCMLGTYTQDFNKFHTFPQTAIGVGAP; ends and bridges not checked; cysteine pairing not given here; UniProt P01258 85-116, looked up) [CT]",apoptosis,[8],inhibits apoptosis
same,tumour growth and invasiveness,[8],stimulates tumour growth and invasiveness
same,growth of xenograft tumours,[9],inhibits the growth
